Assay [1] deals with doxorubicin-induced NF-κB activity. Put plainly: NF-κB reporter in HEK293-NF-κB-luc cells stimulated with doxorubicin. As to conditions: 2 μM doxorubicin; CID-2858522 4 μM, IKK inhibitor 10 μM. Format: cell-based. How it is done:
FIGS. 3 (A-F) HEK293-NF-κB-luc cells were pretreated with CID-2858522 (4 μM), IKK inhibitor, BMS-335541 (10 μM), or PKC inhibitor, Bisindolylmaleimide I (1 μM) for 2 hrs and then transfected with plasmids encoding CD4/TLR4 (A), CD40 (B), NOD1 (C), NOD2 (D), cIAP2-MALT1 (E), or XIAP and TAB (F), or pcDNA as control (compounds were not removed). After 48 hrs, luciferase activity was measured expressing data as fold increase relative to unstimulated cells (mean±SD; n=3). (G-H) HEK293-NF-κB-luc cells were pretreated with CID-2858522 (4 μM), or IKK inhibitor, BMS-335541 (10 μM) for 2 hrs and then cultured with 2 μM doxorubicin (G) or 16 μM retinoic acid (H). After 48 hrs, luciferase activity was measured as above.
Counter Screening and Secondary Assays. To counter-screen for inhibitors of the TNF pathway, HEK293-NFκB-Luc cells were seeded at 10^5 cells per well in 90 μL medium in white 96-well plates (Greiner Bio-One) and cultured overnight, before adding compounds (5 μL in medium) to cells. […] Luciferase activity was measured using Britelite kit (Perkin Elmer). […] Cells were cultured in medium containing CID-2858522 or other compounds and luciferase activity was measured 48 h later. […] Reactions were then initiated by addition of 50 μL 160 nM ATP (Sigma) in PBS and luciferase activity was measured 2 h later using a luminometer (LJL Biosystems, Sunnyvale, Calif.).

For assay [2], the target named is T1, IKK-beta (Homo sapiens, UniProt O14920).
T1 construct: purchased Cell Signaling, Danvers, Mass
The assay can be described thus: In vitro kinase assay IKK-beta (HTScan kit). Format: biochemical. As to conditions: CID-2858522 up to 8 μM; STS 0.5 μM; IKK inhibitor 10 μM. How it is done:
(§1) CID-2858522 (8 μM) were tested in in vitro IKK beta (A), PKC beta […] or PKC theta (C) kinase assays using kits. STS (0.5 μM), IKK inhibitor (10 μM) and PKC inhibitor (1 μM) were used as positive controls.
(§2) In Vitro Kinase Assays. PKC-beta, PKC-theta and IKK-beta in vitro kinase assays were performed using the HTScan Kinase Assay Kit (Cell Signaling, Danvers, Mass.) according to manufacturer's protocols. A panel of >300 kinases was screened by Ambit, Inc.

In assay [3] the test system is CARMA/MALT1/Bcl-10 complex. Put plainly: Co-immunoprecipitation of CARMA1/CARMA3 with Bcl-10, MALT, TRAF6, IKKγ, Caspase-8 in transfected HEK293 cells. Format: cell-based. As to conditions: for inhibition of PMA-induced association of CARMA1 or CARMA3 with Bcl-10, MALT, TRAF6, IKKγ, Caspase-8: CID-2858522 4 μM, Bisindolylmaleimide I 1 μM. Here is the method: FIG. 7. CID-285852 inhibits IKKβ phosphorylation induced by PKC activators. (A) HEK293 cells were cultured in 0.5% FBS medium for 24 h and then treated with CID-2858522 (4 μM) or PKC inhibitor, Bisindolylmaleimide I (1 μM) for 2 hrs followed by PMA/Ionomycin (10 ng/mL; 5 ng/mL) for 2 h. Cell lysates were subjected to immunoprecipitation using anti-CARMA1 antibody and analyzed by immunoblotting with anti-phospho-CARMA1 antibody or anti-CARMA1 antibody. (B-E) HEK293 cells were transfected with plasmids encoding myc-CARMA1 in combination with plasmids encoding various other proteins including Caspase-8 (cys287ala) (B), HA-IKK-γ (C), HA-TAK1 (D), and TRAF6 (E). After 36 h. cells were cultured in 0.5% FBS medium for 12 h and then treated with CID-2858522 (4 μM) or Bisindolylmaleimide I (1 μM) for 2 hrs, followed by PMA/Ionomycin treatment (10 ng/mL; 5 ng/mL) for 2 hrs. Cell lysates were immunoprecipated using anti-myc antibody and analyzed by immunoblotting using anti-Caspase8 (B), anti-HA (C,D), or anti-TRAF6 (E) antibodies. (F) HEK293 cells were treated with CID-2858522 (4 μM) or PKC inhibitor (1 μM) followed by PMA/Ionomycin (10 ng/mL; 5 ng/mL) treatment for 2 hrs. Cell lysates were normalized for protein content and analyzed by immunoblotting using anti-FLIP and anti-alpha-tubulin antibodies. […] Cell lysates were immunoprecipitated using anti-IKK-β and analyzed by immunoblotting using anti-phospho-IKK-β antibody or anti-IKK-β antibody (as loading control). Approximate molecular weights of all proteins are indicated in kiloDaltons.
Mapping the site of action of CID-2858522 in the antigen receptor-activated NF-κB pathway. […] To characterize the effects of CID-2858522 on these possible targets of the antigen receptor pathway for NF-κB activation, we first evaluated PMA-induced phosphorylation of Carmal, by phospho-specific antibody immunoblotting, finding no effect of CID-2858522 on this molecular event that initiates formation of the CBM complex (FIG. 7A). […]

In assay [4] the target is T2, PKC-beta (Homo sapiens, UniProt P05771).
T2 construct: purchased Cell Signaling, Danvers, Mass
Put plainly: In vitro kinase assay PKC-beta (HTScan kit). Format: biochemical. As to conditions: CID-2858522 up to 8 μM; STS 0.5 μM; PKC inhibitor 1 μM. Here is the method:
as §1, §2

T2 sequence (P05771 whole entry): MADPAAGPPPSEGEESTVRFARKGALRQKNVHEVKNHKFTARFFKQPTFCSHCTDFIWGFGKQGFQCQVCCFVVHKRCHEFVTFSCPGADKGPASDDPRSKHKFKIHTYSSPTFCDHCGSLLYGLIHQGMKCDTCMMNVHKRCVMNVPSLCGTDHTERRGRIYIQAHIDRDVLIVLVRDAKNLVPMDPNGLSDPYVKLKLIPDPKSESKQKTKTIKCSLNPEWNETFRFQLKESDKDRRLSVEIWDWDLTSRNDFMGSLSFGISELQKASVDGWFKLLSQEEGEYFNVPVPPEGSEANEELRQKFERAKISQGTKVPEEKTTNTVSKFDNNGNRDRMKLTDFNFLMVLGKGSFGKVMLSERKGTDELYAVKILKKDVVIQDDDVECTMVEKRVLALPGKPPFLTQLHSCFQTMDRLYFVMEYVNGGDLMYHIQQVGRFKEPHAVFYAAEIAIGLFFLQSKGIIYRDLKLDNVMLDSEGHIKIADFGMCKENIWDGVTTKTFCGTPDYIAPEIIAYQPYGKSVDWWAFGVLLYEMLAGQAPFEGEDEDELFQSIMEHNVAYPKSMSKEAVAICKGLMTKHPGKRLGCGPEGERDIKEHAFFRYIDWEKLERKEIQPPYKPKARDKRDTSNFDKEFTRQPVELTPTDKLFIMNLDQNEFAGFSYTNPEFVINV
T1 sequence (O14920 whole entry): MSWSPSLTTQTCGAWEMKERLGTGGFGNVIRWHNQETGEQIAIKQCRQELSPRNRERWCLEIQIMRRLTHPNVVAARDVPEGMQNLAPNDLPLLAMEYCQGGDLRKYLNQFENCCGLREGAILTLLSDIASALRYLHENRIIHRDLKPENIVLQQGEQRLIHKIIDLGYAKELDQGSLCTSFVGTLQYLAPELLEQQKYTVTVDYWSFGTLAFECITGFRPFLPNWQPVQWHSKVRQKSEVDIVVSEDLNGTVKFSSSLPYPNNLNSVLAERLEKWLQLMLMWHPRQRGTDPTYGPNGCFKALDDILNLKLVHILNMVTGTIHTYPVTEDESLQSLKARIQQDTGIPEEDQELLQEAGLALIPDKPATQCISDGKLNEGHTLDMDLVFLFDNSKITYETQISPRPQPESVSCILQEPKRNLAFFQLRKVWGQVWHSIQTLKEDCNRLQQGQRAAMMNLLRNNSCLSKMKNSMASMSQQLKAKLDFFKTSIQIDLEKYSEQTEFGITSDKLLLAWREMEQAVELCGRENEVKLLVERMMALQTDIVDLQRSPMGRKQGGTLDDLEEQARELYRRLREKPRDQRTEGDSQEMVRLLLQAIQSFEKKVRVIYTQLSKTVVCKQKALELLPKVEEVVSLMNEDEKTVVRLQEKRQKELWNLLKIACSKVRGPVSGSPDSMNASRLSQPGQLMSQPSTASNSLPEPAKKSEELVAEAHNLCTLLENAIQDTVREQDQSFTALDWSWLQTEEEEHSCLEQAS

With `Cc1ccc2nc(NCCN)c3ncc(C)n3c2c1` [BMS-345541, reference compound], the “suppression of doxorubicin-induced NF-κB activity” value in assay [1] is “suppressed”. The “inhibition of IKK-beta kinase activity” value in assay [2] is reported as “potent inhibition”.

For the molecule `CN(C)CCCn1cc(C2=C(c3c[nH]c4ccccc34)C(=O)NC2=O)c2ccccc21` [Bisindolylmaleimide I, reference compound], the “inhibition of PMA-induced association of CARMA1 or CARMA3 with Bcl-10, MALT, TRAF6, IKKγ, Caspase-8” value in assay [3] is reported as “inhibited”. Besides, the “inhibition of PKC-beta kinase activity” value in assay [4] is “potent inhibition”.

For the molecule `Cc1cc2nc(NCCCO)n(CC(=O)c3cc(C(C)(C)C)c(O)c(C(C)(C)C)c3)c2cc1C` [Compound 1, 2-(2-(3-Hydroxypropylamino)-5,6-dimethyl-1H-benzo[d]imidazol-1-yl)-1-(3,5-di-tert-butyl-4-hydroxyphenyl)ethanone], the “inhibition of PMA-induced association of CARMA1 or CARMA3 with Bcl-10, MALT, TRAF6, IKKγ, Caspase-8” value in assay [3] is “not by CID-2858522”. In addition, the “disruption of CARMA/MALT1/Bcl-10 (CMB) complex formation” value in assay [3] (PMA/Ionomycin, cells or lysate) is given as “did not disrupt”. In addition, in assay [1], the “suppression of doxorubicin-induced NF-κB activity” value was “did not inhibit”. In addition, the “inhibition of IKK-beta kinase activity” value in assay [2] is listed as “failed to suppress”. Moreover, the “inhibition of PKC-beta kinase activity” value in assay [4] is given as “failed to suppress”.

These data come from patent US20090247520A1, “INHIBITORS OF ANTIGEN RECEPTOR-INDUCED NF-kappa B ACTIVATION” (The Burnham Institute for Medical Research, priority 2008, published 2009).
